Measured values from patent US20070078109A1, “Compositions and methods used to treat acne and candida” (priority 2004, published 2007).

What was measured:
Escherichia coli = details: at low concentration
[1] = system: P. acnes and various pathogenic candida; details: including against resistant pathogenic strains
acne = details: 4% active AGP formula; in less than 48 hours
[2] = system: C. albicans isolates, including one fluconazole-resistant strain; details: AGP at 0.25% topical, 1-7 days, cyclophosphamide-immunosuppressed animals; compared with 2% miconazole
Method: Pre-clinical studies with three C. albicans isolates, including one fluconazole-resistant strain, were performed using immunosuppressed animals with cyclophosphamide.

P. acnes = details: complete inhibition
Staphyloccocus aureus = details: at low concentration

N-acetylglucoseamine (AGA)-glucosamine (GA)-pyrithione (PR) [AGP]
activity toward Escherichia coli (Escherichia coli): active | bactericidal activity [1]: excellent bactericidal activity | results in acne patients (acne): remarkable results | clearing the infection [2]: equivalent in clearing the infection as 2% miconazole | concentration that completely inhibited P. acnes (P. acnes): less than 0.1 mg/mL | activity toward Staphyloccocus aureus (Staphyloccocus aureus): active
